From US10155732B2, “Ribonucleotide reductase inhibitors and methods of use” (City of Hope, priority 2012, dated 2018)
“And” between values parts separate entries of the source, which are not always exact repeats. Identical values can stand only once. Like-named read-outs stand apart in the source and are kept apart here.

Tests used:
[1] = system: human oropharyngeal cancer KB cells; test: MTT cytotoxicity assay; type: cell-based; details: 72 hours
Method: (§1) The in vitro cytotoxicity of COH4 and COH20 towards human leukemia REH and MOLT-4 cells, human prostate cancer LNCaP cells, human oropharyngeal cancer KB cells, and normal fibroblast NHDF cells was evaluated using an MTT assay. 5,000 cells were seeded on six-well plates for 72 hours with various concentrations of drug. COH20 was cytotoxic to the cancer cell lines at less than 10 μM, while causing less cytotoxicity to normal cells than 3-AP.

[2] = system: human prostate cancer LNCaP cells; test: MTT cytotoxicity assay; type: cell-based; details: 72 hours
Method: as §1

[3] = system: human leukemia REH cells; test: MTT cytotoxicity assay; type: cell-based; details: 72 hours
Method: as §1

[4] = system: KBMDR; test: in vitro cytotoxicity assay, multidrug resistant clone; type: cell-based, human
[5] = molecular target: recombinant RRM1/RRM2 complex (Homo sapiens (Human), UniProt P31350); test: in vitro holoenzyme-based RR assay, [3H]CDP reduction by HPLC; type: biochemical; details: for inhibition of native RRM1/RRM2 activity in vitro screen: screen of top 80 virtual screening candidates
Chain of recombinant RRM1/RRM2 complex (P31350 whole entry, one chain of several): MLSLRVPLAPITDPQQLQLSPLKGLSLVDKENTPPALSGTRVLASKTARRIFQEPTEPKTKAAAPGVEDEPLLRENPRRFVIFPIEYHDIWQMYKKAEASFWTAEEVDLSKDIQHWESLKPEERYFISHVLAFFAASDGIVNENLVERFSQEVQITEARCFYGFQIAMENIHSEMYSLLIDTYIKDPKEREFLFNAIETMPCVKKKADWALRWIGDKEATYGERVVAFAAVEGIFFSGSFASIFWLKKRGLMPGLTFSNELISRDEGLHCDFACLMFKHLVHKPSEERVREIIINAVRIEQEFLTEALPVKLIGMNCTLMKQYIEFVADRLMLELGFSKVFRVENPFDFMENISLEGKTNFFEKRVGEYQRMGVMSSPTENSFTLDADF
Excerpt: Compounds that docked into the ligand binding pocket were identified using the TRIPOS FlexX docking tool and ranked using an embedded consensus docking score. […] The assay utilized recombinant RRM1/RRM2 or RRM1/RRM2 complex and measured [^3H]CDP reduction activity (i.e., CDP to dCDP) by HPLC.

[6] = system: human leukemia MOLT-4 cells; test: MTT cytotoxicity assay; type: cell-based
Method: as §1
(§2) The in vitro cytotoxicity of COH29 towards a panel of human cancer cell lines was tested using the MTT assay described above.

[7] = system: normal fibroblast NHDF cells; test: MTT cytotoxicity assay; type: cell-based, human; details: 72 hours
Method: as §1

[8] = system: NCI 60 human cancer cell lines; test: MTT cytotoxicity assay, panel of human cancer cell lines; type: cell-based
Method: as §1, §2

[9] = single-dose pharmacokinetic evaluation in rats; type: in vivo, rat
Method: COH20 was injected into three male rats at 1 mg/kg for single-dose pharmacokinetic evaluation. […] More detailed pharmacokinetic studies will be performed with various dosages of COH20 to establish parameters such as clearance, bioavailability, and tissue/plasma partition coefficients.
Pharmacokinetic evaluation was performed on COH29 using the same techniques, with COH29 administered at a dosage of 25 mg/kg.

[10] = system: Leukemia SUP B15; test: MTT cytotoxicity assay; type: cell-based; details: Homo sapiens
Method: as §1, §2

[11] = system: Ovarian Cancer OV 90; test: MTT cytotoxicity assay; type: cell-based; details: Homo sapiens
Method: as §1, §2

[12] = system: Leukemia CCRF-CEM; test: MTT cytotoxicity assay; type: cell-based; details: Homo sapiens
Method: as §1, §2

[13] = system: intracellular RR; test: intracellular RR activity in lysates of treated KB cells; type: cell-based, human; details: KB cells treated with 10 μM
Method: To confirm that the ability of COH20 to inhibit RR activity was not specific to recombinant RR, an assay was performed testing the effect of COH20 on intracellular RR. KB cells treated with 10 μM COH20 were lysed, and protein was extracted in a high salt buffer and passed through a G25 SEPHADEX® column to remove small molecules such as dNTP. The eluate was mixed with [^3H]CDP in reaction buffer to monitor RR activity. Treatment with COH20 decreased intracellular RR activity by approximately 50% (FIG. 7).

[14] = system: REH, MOLT-4, LNCaP and KB cancer cell lines; test: MTT cytotoxicity assay, cancer cell lines together; type: cell-based, human
Method: as §1

[15] = system: KBHURs; test: in vitro cytotoxicity assay, HU-resistant clone; type: cell-based, human; details: overexpresses RRM2
Method: as §1
In vitro cytotoxicity assays were repeated using KBHURs, an HU-resistant clone derived from KB cells that overexpresses RRM2. […] Similar experiments will be repeated using the gemcitabine resistant cell line KBGem, which also overexpresses RRM2.

[16] = RR activity, Table 1, read-out: IC50 ± S.D.
[17] = rats, 25 mg/kg, individual analysis 1-3
[18] = Homo sapiens, MOLT-4, 72 hours, Table 3, read-out: IC50 MOLT-4

SMILES: NC(=O)NO [HU, hydroxyurea, reference compound]
- IC50 [1]: 300 µM
- IC50 [2]: 280 µM
- IC50 [3]: 32.8 µM
- concentration exhibiting cytotoxicity towards KBMDR cells [4]: > 1000 µM
- IC50 [5, 16]: 148 ± 7.34 µM
- IC50 ([6]; 72 hours, Table 3, read-out: IC50 MOLT-4): 165 µM
- IC50 [7]: > 1000 µM

SMILES: Cl.O=c1oc2ccccc2c(O)c1C=Nc1nc(-c2ccc(O)c(O)c2)cs1 [NSC #659390]
- inhibition of native RRM1/RRM2 activity in vitro screen [5]: ≥ 80%

SMILES: O=C1C(Cl)=C(Nc2ccc(S(=O)(=O)Nc3ccccn3)cc2)C(=O)c2ccccc21 [NSC #45382]
- inhibition of native RRM1/RRM2 activity in vitro screen [5]: ≥ 80%

SMILES: O=C(Nc1nc(-c2ccc(O)c(O)c2)c(-c2ccccc2)s1)c1ccc(O)c(O)c1 [COH29]
- GI50 ([8]; except HT29, UACC-257, NCI/ADR-RES, CAKI-1): < 10 µM
- IC50 ([8]; except colon cancer HT29, melanoma UACC-257, ovarian cancer NCI/ADR-RES, renal cancer CAKI-1, read-out: IC50 in all cell types tested): < 10 µM
- AUC ([9]; rat, plasma, intravenous, 25 mg/kg, rats, 25 mg/kg, Avg. of triplicate, read-out: AUC): 3480 ng·h/mL
- Cmax ([9]; rat, plasma, intravenous, 25 mg/kg, rats, 25 mg/kg, Avg. of triplicate, read-out: Cmax): 27600 ng/mL
- half-life ([9]; rat, plasma, intravenous, 25 mg/kg, rats, 25 mg/kg, Avg. of triplicate, read-out: T1/2 (converted)): 2.67 h
- Vd ([9]; rat, plasma, intravenous, 25 mg/kg, rats, 25 mg/kg, Avg. of triplicate, read-out: Vss): 0.804 L/kg
- AUC ([9]; rat, plasma, intravenous, 25 mg/kg, rats, 25 mg/kg, individual analysis 1-3, read-out: AUC): 3670 ng·h/mL
- Cmax ([9]; rat, plasma, intravenous, 25 mg/kg, rats, 25 mg/kg, individual analysis 1-3, read-out: Cmax): 31300 ng/mL
- clearance ([9]; rat, plasma, intravenous, 25 mg/kg, rats, Avg. of triplicate): 122 mL/min/kg
- clearance ([9]; rat, plasma, intravenous, 25 mg/kg, rats, individual analysis 1-3): 114 mL/min/kg
- Tmax ([9]; rat, plasma, intravenous, rats, 25 mg/kg, individual analysis 1-3): 1.8 min
- AUC [9, 17]: 2861 ng·h/mL and 3918 ng·h/mL
- CL [9, 17]: 145.6 mL/min/kg and 106.4 mL/min/kg
- Cmax [9, 17]: 26000 ng/mL and 25600 ng/mL
- T1/2 [9, 17]: 0.4 h and 7.6 h and 0.03 h
- Vss [9, 17]: 1.185 L/kg and 0.576 L/kg and 0.653 L/kg
- AUC dose dependence ([9]; rats, i.v. bolus): dose-dependent manner
- IC50 [10]: 5 µM
- IC50 [11]: 2.6 µM
- IC50 [12]: 2.8 µM
- IC50 ([6]; Homo sapiens, MOLT-4, Table 4, read-out: IC50 Leukemia MOLT-4): 2.5 µM

SMILES: O=C(Nc1nc(-c2ccc(O)c(O)c2)cs1)c1ccccc1 [COH4]
- IC50 ([1]; Homo sapiens, KB): 30.6 µM
- IC50 ([2]; Homo sapiens, LNCaP): 23 µM
- IC50 ([3]; Homo sapiens, REH): 20.6 µM
- IC50 [5, 16]: 15.3 ± 1.8 µM
- IC50 [6, 18]: 11.8 µM
- IC50 ([7]; Homo sapiens, NHDF): 52.6 µM

SMILES: NC(=S)NN=Cc1ncccc1N [Compound 3-AP, 3-aminopyridine-2-carboxaldehyde thiosemicarbazone, reference compound]
- IC50 ([1]; Homo sapiens, KB): 1.98 µM
- IC50 ([2]; Homo sapiens, LNCaP): 1.75 µM
- IC50 ([3]; Homo sapiens, REH): 1.42 µM
- concentration exhibiting cytotoxicity towards KBMDR cells [4]: 200 µM
- IC50 [5, 16]: 1.2 ± 0.13 µM
- IC50 [6, 18]: 1.21 µM
- IC50 ([7]; Homo sapiens, NHDF): 7.35 µM

SMILES: O=C(Nc1nc(-c2ccc(O)c(O)c2)cs1)c1ccc(O)c(O)c1 [COH20]
- decrease of intracellular RR activity [13]: approximately 50%
- IC50 ([1]; Homo sapiens, KB): 9.25 µM
- IC50 ([2]; Homo sapiens, LNCaP): 8.49 µM
- IC50 ([3]; Homo sapiens, REH): 2.54 µM
- concentration cytotoxic / growth inhibiting to the cancer cell lines [14]: less than 10 μM
- half-life ([9]; male, rat, plasma, other: injected, 1 mg/kg, three male rats, 1 mg/kg, plasma, read-out: terminal half-life (T1/2) (converted)): ~5.5 h
- concentration exhibiting cytotoxicity towards KBMDR cells [4]: 80 µM
- cytotoxicity to KBMDR (in words) ([4]; overexpresses the MDR pump): at lower concentrations than 3-AP or HU
- inhibition of the recombinant RRM1/RRM2 complex in vitro [5]: 90.2%
- IC50 [5, 16]: 9.3 ± 2.3 µM
- IC50 ([5]; Table 2, no added Fe, read-out: IC50 ± S.D. RRM1/RRM2): 9.31 ± 2.3 µM
- IC50 [6, 18]: 5.26 µM
- IC50 ([7]; Homo sapiens, NHDF): 82.8 µM
- cytotoxicity to KBHURs (in words) [15]: cytotoxic to KBHURs at significantly lower concentrations than the other RR inhibitors tested
